Assay results taken from patent US20110092487A1, “NOVEL 3,8-DIAZA-BICYCLO[3.2.1]OCTANE-AND 3,9-DIAZA-BICYCLO[3.3.1]-NONANE-3-CARBOXYLIC ACID ESTER DERIVATIVES AND THEIR USE AS MONOAMINE NEUROT[…]-UPTAKE INHIBITORS” (NeuroSearch A/S, priority 2008, published 2011).

Assays:
Assay type in all cases: biochemical
[1] = target: T1, dopamine (DA) reuptake in synaptosomes (Rattus norvegicus, UniProt P23977); assay: Inhibition of DA reuptake in synaptosomes; conditions: 3H-DA, read-out: DA-uptake IC50
T1 construct: in synaptosomes as described in WO 97/16451 (NeuroSearch A/S); from tissue
Excerpt: (§1) Compounds of the invention may be tested for their ability to inhibit reuptake of the monoamines dopamine, noradrenaline and serotonin in synaptosomes e.g. such as described in WO 97/30997 (NeuroSearch NS) or WO 97/16451 (NeuroSearch NS). Based on the balanced activity observed in these tests the compound of the invention is considered useful for the treatment, prevention or alleviation of a disease or a disorder or a condition of a mammal, including a human, which disease, disorder or condition is responsive to inhibition of monoamine neurotransmitter re-uptake in the central nervous system.
(§2) Compounds were tested for their ability to inhibit the reuptake of the monoamine neurotransmitters dopamine (DA) noradrenaline (NA) and serotonine (5-HT) in synaptosomes as described in WO 97/16451 (NeuroSearch A/S).
(§3) The test values are given as IC50 (the concentration (μM) of the test substance which inhibits the specific binding of ^3H-DA, ^3H-NA, or ^3H-5-HT by 50%).

[2] = target: T2, serotonine (5-HT) reuptake in synaptosomes (Rattus norvegicus, UniProt P31652); assay: Inhibition of 5-HT reuptake in synaptosomes; conditions: 3H-5-HT, read-out: 5-HT-uptake IC50
T2 construct: in synaptosomes as described in WO 97/16451 (NeuroSearch A/S); from tissue
Excerpt: as §1, §2, §3

[3] = target: T3, noradrenaline (NA) reuptake in synaptosomes (Rattus norvegicus, UniProt Q63380); assay: Inhibition of NA reuptake in synaptosomes; conditions: 3H-NA, read-out: NA-uptake IC50
T3 construct: in synaptosomes as described in WO 97/16451 (NeuroSearch A/S); from tissue
Excerpt: as §1, §2, §3

T2 sequence (P31652 whole entry): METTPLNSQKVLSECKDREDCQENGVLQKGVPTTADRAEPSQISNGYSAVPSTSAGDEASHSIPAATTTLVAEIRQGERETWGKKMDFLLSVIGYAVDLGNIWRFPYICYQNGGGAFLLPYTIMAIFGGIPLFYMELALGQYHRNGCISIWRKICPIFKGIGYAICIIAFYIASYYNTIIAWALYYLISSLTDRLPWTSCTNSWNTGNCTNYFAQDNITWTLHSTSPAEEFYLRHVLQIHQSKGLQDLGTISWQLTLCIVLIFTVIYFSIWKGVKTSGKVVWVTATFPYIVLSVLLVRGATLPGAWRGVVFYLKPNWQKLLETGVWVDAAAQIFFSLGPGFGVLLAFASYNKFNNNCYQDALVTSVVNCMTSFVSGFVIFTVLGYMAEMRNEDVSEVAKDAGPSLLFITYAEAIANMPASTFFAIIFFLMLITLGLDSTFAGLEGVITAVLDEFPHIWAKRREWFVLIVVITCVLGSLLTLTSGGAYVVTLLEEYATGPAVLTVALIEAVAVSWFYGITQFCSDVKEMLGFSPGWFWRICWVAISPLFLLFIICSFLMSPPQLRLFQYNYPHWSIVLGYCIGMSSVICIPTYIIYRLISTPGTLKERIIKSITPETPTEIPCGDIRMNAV
T3 sequence (Q63380 1-617): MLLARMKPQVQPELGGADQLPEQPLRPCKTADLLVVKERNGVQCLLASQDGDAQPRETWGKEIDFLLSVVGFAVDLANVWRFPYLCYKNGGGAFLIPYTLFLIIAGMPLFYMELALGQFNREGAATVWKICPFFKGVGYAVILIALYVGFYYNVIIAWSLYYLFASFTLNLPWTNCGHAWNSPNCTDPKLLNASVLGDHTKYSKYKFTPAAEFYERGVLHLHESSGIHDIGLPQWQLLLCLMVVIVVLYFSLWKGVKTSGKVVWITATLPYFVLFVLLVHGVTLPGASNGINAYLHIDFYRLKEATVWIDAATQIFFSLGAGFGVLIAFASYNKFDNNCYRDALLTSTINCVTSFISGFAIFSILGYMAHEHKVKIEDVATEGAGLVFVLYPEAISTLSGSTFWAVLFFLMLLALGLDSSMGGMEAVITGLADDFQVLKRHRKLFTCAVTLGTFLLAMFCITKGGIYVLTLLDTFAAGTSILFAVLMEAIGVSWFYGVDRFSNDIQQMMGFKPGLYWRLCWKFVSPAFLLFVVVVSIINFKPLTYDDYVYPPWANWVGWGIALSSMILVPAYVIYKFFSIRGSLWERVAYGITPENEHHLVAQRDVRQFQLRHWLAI
T1 sequence (P23977 whole entry): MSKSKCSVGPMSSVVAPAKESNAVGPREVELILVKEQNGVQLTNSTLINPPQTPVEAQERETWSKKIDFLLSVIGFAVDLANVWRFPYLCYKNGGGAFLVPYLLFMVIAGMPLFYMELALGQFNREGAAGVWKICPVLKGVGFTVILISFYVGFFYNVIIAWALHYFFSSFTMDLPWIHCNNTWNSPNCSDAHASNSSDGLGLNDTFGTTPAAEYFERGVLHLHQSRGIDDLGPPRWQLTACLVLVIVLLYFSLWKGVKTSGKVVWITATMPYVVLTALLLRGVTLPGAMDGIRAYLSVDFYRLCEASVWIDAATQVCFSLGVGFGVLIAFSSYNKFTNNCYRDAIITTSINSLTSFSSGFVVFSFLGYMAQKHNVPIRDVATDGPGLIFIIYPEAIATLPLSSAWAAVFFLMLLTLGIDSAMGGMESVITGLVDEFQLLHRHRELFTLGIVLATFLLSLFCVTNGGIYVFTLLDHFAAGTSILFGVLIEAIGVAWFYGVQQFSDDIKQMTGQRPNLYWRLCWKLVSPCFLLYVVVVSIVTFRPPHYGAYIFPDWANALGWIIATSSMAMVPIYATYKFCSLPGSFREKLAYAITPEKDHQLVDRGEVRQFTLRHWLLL

SMILES	IC50 [1] [nM]	IC50 [2] [nM]	IC50 [3] [nM]
COc1ccc2cc(OC(=O)N3CC4CCCC(C3)N4C)ccc2c1 [9-Methyl-3,9-diaza-bicyclo[3.3.1]nonane-3-carboxylic acid 6-methoxynaphthalen-2-yl ester]	30	340	24
O=C(Oc1ccc2ccc(=O)oc2c1)N1CC2CCC(C1)N2 [3,8-Diaza-bicyclo[3.2.1]octane-3-carboxylic acid 2-oxo-2H-chromen-7-yl ester]	92	27	620
CN1C2CCCC1CN(C(=O)Oc1ccc3ccc(=O)oc3c1)C2 [9-Methyl-3,9-diaza-bicyclo[3.3.1]nonane-3-carboxylic acid 2-oxo-2H-chromen-7-yl ester]	610	40	1600
O=C(Oc1ccc(Cl)c(Cl)c1)N1CC2CCCC(C1)N2 [3,9-Diaza-bicyclo[3.3.1]nonane-3-carboxylic acid 3,4-dichloro-phenyl ester]	> 1000	7.8	2000
